Experiment [1] has as its target T1, PbPM4 (Plasmodium berghei, UniProt O76965). Briefly: Inhibition of mature PbPM4, dissociation constants (Ki) from initial cleavage velocities of a chromogenic peptide substrate. Type of experiment: biochemical. The method, then:
(§1) Chromogenic peptide substrates were dissolved in a solution containing 20% dimethyl sulfoxide (DMSO), 10% formic acid, and 70% distilled deionized water to generate stock solutions. Inhibitor stock solutions were prepared in 100% DMSO. The concentrations of the stock solutions were determined by amino acid analysis.
(§2) Kinetic assays were set up in 500 mM sodium citrate, pH 5.0 at 37°C with a 5-min pre-equilibrium time with buffer. To study kinetics of the zymogen form, assays were set up in 500 mM sodium citrate, pH 5.5 at 37°C with a 5-min pre-equilibrium time. All enzymatic reactions were carried out at 37°C.
(§3) Dissociation constants were determined as previously described.
(§4) The enzymes were prepared for kinetic assays: purified proPbPM4 was pre-incubated in 100 mM sodium citrate, pH 5.0, at 37°C for 5 min; purified mature PfPM1 was pre-incubated in 100 mM sodium citrate, pH 5.5, at 37°C for 3 min; all the other plasmepsins were pre-incubated in 100 mM sodium formate, pH 4.5, at 37°C for 5 min to convert zymogen to mature enzyme before the addition of substrates. Pre-incubation of hcatD was carried out in 200 mM sodium formate, pH 3.7, at 37°C for 5 min. Compound 1 was dissolved in 100% DMSO, and filtered through a 0.45 μm Costar cellulose acetate tube filter by centrifugation at 20,000 g, room temperature for 5 min to remove any particulate. The concentration of compound 1 was determined by amino acid analysis. Dissociation constants (Ki) were determined as described above.

The next experiment addresses PoPM4. The note with it: read-out: Dissociation Constant (K i) PoPM4; cited from earlier work.
For a further experiment, the target named is PmPM4. The conditions noted are these: read-out: Dissociation Constant (K i) PmPM4; cited from earlier work.
For experiment [2], the target named is T1, PbPM4. The experiment in a line: Kinetic analysis of cleavage of chromogenic peptide substrates by mature PbPM4. Type of experiment: biochemical. The conditions noted are these: sodium citrate pH 5.0, 37°C. How it is done: as §1, §2
The substrate hydrolysis was analyzed by spectroscopy and defined as the decrease of the average absorbance between 284–324 nm. Pre-equilibrated enzyme was mixed with substrate at least six different concentrations (μM). The initial cleavage velocities (AU/sec) of these reactions were immediately measured on a Cary 50 Bio UV-Visible spectrophotometer. The initial cleavage rates (M/sec) were converted from the observed velocities (AU/sec) by dividing the observed velocities by the total absorbance changes upon complete enzymatic digestion of the substrate of known concentrations (i.e., AU/M).
The total concentration of active enzyme, [E]tot, was determined by titrating PbPM4 enzyme with the tight binding, competitive, aspartic proteinase inhibitor pepstatin A. A constant amount of pre-equilibrated enzyme was mixed either with 100 μM of the peptide substrate Lys-Pro-Ile-Leu-Phe*Nph-Arg-Leu or with both 100 μM of substrate and pepstatin A at a series of different concentrations. The initial cleavage rates of the substrate at different inhibitor concentrations were immediately measured afterwards using a Cary 50 Bio UV-Visible spectrophotometer.

Another experiment addresses PvPM4 (Plasmodium vivax, UniProt O60989). Briefly: biochemical. How it is done: as §3
(§5) Besides PbPM4, the cloning, expression and purification of recombinant human FV plasmepsins, including PfPM1, 2 and 4, PoPM4, PvPM4 and PmPM4, and hcatD were performed according to experimental procedures described in previous reports. Briefly, genes encoding N-terminally truncated semi-pro-enzymes were cloned from genomic DNA, or intra-erythrocyte stage cDNA library of Plasmodium spp. (e.g., in the case of PfPM1), and inserted to pET expression vectors (EMD Millipore). Protein expression, inclusion body preparation and in vitro protein refolding were performed as described above for PbPM4. Proteins were purified using anion exchange chromatography.
as §4, with “Compound 1 was dissolved in 100% DMSO, and filtered through a 0.45 μm Costar cellulose acetate tube filter by centrifugation at 20,000 g, room temperature for 5 min to remove any particulate.” left out

The target in a further experiment is PfPM1 (Plasmodium falciparum, UniProt P39898). The experiment in a line: biochemical. The method, then:
as §3, §5
as §4, with “Compound 1 was dissolved in 100% DMSO, and filtered through a 0.45 μm Costar cellulose acetate tube filter by centrifugation at 20,000 g, room temperature for 5 min to remove any particulate.” left out

Experiment [3] concerns the target T2, human cathepsin D (hcatD) (Homo sapiens, UniProt P07339).
T2 construct: made in house
The experiment in a line: Inhibition of human cathepsin D, dissociation constants (Ki). The format is biochemical. The conditions noted are these: pre-incubated in 200 mM sodium formate pH 3.7, 37°C, 5 min; read-out: Dissociation Constant (K i) hCatD. How it is done: as §3
Proteins were purified using anion exchange chromatography.
Dissociation constants (Ki) were determined as described above.

The text below walks through data of publication PMC4624963, “Enzymatic Characterization of Recombinant Food Vacuole Plasmepsin 4 from the Rodent Malaria Parasite Plasmodium berghei” (PLoS ONE, 2015).

Where two headings read alike, the source gives them in different places. Where a SMILES comes first, the peptide text is derived from it. [ ]: non-standard residue; d: D form. The star is where a group is joined. Sta = CC(C)C[C@H](N)[C@@H](O)CC(=O)O; Isovaleryl = CC(C)CC(=O)*

T1 sequence (O76965 entry or part of it): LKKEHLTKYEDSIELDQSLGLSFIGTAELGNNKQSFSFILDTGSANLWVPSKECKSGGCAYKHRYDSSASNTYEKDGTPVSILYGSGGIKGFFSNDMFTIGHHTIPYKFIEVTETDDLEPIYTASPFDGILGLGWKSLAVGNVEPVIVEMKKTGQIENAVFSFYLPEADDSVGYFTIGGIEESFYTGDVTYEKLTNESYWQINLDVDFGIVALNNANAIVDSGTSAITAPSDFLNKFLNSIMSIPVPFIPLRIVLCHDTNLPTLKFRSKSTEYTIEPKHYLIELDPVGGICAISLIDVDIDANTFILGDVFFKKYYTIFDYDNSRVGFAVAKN
Chain of PvPM4 (O60989 122-450 limits assumed): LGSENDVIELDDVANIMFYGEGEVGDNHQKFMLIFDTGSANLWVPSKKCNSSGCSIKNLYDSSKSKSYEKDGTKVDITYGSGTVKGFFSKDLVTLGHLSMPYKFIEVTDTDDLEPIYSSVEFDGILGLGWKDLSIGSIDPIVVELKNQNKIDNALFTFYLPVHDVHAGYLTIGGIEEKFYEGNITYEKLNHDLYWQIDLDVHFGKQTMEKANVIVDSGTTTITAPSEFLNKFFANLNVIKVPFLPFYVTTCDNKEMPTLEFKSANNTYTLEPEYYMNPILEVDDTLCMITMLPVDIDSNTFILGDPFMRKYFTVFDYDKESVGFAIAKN
T2 sequence (P07339 65-412): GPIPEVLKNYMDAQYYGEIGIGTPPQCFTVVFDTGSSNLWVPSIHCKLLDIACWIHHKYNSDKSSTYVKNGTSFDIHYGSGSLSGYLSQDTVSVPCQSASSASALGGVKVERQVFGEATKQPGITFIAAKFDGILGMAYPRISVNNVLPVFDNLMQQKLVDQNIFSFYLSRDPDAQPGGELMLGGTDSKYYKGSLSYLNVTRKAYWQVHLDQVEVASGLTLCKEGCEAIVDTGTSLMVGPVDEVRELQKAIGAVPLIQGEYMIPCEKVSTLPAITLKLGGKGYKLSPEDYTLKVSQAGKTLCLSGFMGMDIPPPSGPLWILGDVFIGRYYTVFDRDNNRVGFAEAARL
Chain of PfPM1 (P39898 124-452): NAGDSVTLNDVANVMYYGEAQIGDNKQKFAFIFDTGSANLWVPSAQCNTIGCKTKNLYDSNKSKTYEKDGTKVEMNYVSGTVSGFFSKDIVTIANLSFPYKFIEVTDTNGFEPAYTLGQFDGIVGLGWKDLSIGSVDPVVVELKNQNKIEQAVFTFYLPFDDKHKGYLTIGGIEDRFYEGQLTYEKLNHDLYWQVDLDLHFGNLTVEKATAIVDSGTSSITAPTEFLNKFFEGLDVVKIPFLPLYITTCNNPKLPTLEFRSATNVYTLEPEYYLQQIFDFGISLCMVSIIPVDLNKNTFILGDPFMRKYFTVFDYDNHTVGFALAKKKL

With `CC(C)CC(=O)N[C@H](C(=O)N[C@H](C(=O)N[C@@H](CC(C)C)[C@@H](O)CC(=O)N[C@@H](C)C(=O)N[C@@H](CC(C)C)[C@@H](O)CC(=O)O)C(C)C)C(C)C` [pepstatin A, reference compound] (Isovaleryl-VV[Sta]A[Sta]-OH), at PbPM4 [1] (mature PbPM4, sodium citrate pH 5.0, 37°C, 5 min pre-equilibrium, read-out: K i), the Ki turned out to be 0.11 ± 0.02 nM.
With `CC(C)C[C@@H](CN[C@@H](C)C(=O)N[C@@H](Cc1c[nH]c2ccccc12)C(=O)N[C@H](C(=O)O)[C@@H](C)O)NC(=O)[C@H](CCC(=O)O)NC(=O)[C@H](Cc1ccccc1)NC(=O)[C@@H]1CCCN1C(=O)[C@@H](N)CCCCN` [Compound 7, KPFELΨAWT], the Ki is more than 20000 nM at PoPM4 and 9000 nM on PmPM4.
For the molecule `CC(C)C[C@@H](CN[C@@H](CC(C)C)C(=O)N[C@@H](CCC(N)=O)C(=O)N[C@@H](Cc1ccccc1)C(=O)O)NC(=O)[C@H](CO)NC(=O)[C@H](Cc1ccccc1)NC(=O)[C@@H]1CCCN1C(=O)[C@@H](N)CCCCN` [Compound 2, KPFSLΨLQF], on PoPM4, the Ki was 767 ± 81 nM.
Turning to “Lys-Pro-Ile-Leu-Phe*Nph-Arg-Leu [K-P-I-L-F*Nph-R-L]”, at PbPM4 [2], the K m was determined as 2.1 ± 0.2 µM, the k cat was determined as 34.9 ± 5.7 s⁻¹ and the “k cat/K m” value was determined as 1.65e+07 ± 2.9e+06 M⁻¹ s⁻¹.
`CC(C)C[C@H](NC(=O)[C@@H]1CCCN1C(=O)[C@@H](N)CCCCN)C(=O)N[C@@H](CCC(=O)O)C(=O)N[C@H](CN[C@@H](Cc1ccccc1)C(=O)N[C@@H](CCCNC(=N)N)C(=O)N[C@H](C(=O)O)C(C)C)Cc1ccccc1` [Compound 5, KPLEFΨFRV]: the Ki on PoPM4 was 3.2 ± 0.5 nM; at PmPM4, 3.7 ± 0.6 nM.
As to `N=C(N)NCCC[C@H](NC[C@H](Cc1ccccc1)NC(=O)[C@H](CCC(=O)O)NC(=O)[C@H](Cc1ccc(O)cc1)NC(=O)[C@@H]1CCCN1C(=O)[C@@H](N)CCCCN)C(=O)N[C@@H](CCC(N)=O)C(=O)N[C@@H](Cc1ccccc1)C(=O)O` [Compound 1, KPYEFΨRQF], the Ki at PvPM4 was 426 ± 44 nM; on PfPM1, more than 100000 nM; in experiment [3] it was 41000 nM; on PbPM4 [1] (proPbPM4 pre-incubated in 100 mM sodium citrate pH 5.0, 37°C, 5 min, read-out: Dissociation Constant (K i) PbPM4), 3900 nM. At PbPM4 [1] (from K i values), the “selectivity to PbPM4 and the four plasmepsin 4 homologs of human malaria parasites versus hcatD” value is given as more than 10 fold.
Take `CC(C)C[C@H](NC(=O)[C@@H]1CCCN1C(=O)[C@@H](N)CCCCN)C(=O)N[C@@H](CCC(=O)O)C(=O)N[C@H](CN[C@@H](Cc1ccc(O)cc1)C(=O)N[C@@H](CCCNC(=N)N)C(=O)N[C@H](C(=O)O)C(C)C)Cc1ccccc1` [Compound 6, KPLEFΨYRV]: the Ki is 3.2 ± 0.5 nM at PoPM4 and 0.342 ± 0.047 nM at PmPM4.
For the molecule `CC(C)[C@H](NC(=O)[C@@H]1CCCN1C(=O)[C@@H](N)CCCCN)C(=O)N[C@@H](CCC(=O)O)C(=O)N[C@H](CN[C@@H](CCCNC(=N)N)C(=O)N[C@@H](CCC(N)=O)C(=O)N[C@H](C(=O)O)[C@@H](C)O)Cc1ccccc1` [Compound 4, KPVEFΨRQT], the Ki at PoPM4 is 39 ± 4.5 nM; on PmPM4, 10.3 ± 1.3 nM.
As for `CCCC[C@@H](CN[C@@H](CC(C)C)C(=O)N[C@@H](CCC(N)=O)C(=O)N[C@H](C(=O)O)[C@@H](C)CC)NC(=O)[C@H](CO)NC(=O)[C@H](CCCC)NC(=O)[C@@H]1CCCN1C(=O)[C@@H](N)CCCCN` [Compound 3, KPnLSnLΨLQI], the Ki at PoPM4 was 187 ± 29 nM; at PmPM4 it was 160 ± 26 nM.
